Reference: the NIST ThermoML archive (doi:10.1021/je800942u)
± gives the expanded uncertainty stated by the source.

What was measured:
[1] = mn = molality of the nth substance listed, in mol/kg; conditions: 101 kPa, Liquid
[2] = 101 kPa, Liquid
[3] = wn = mass fraction of the nth substance listed; conditions: 101 kPa, Liquid

NCCCCCCN [1,6-hexanediamine] + CCO
[1]
Conditions | mass density [kg/m3] | viscosity [mPa·s]
303.15 K, m1 = 0.1293 | 782.3 ± 0.8 | 1.011 ± 0.013
303.15 K, m1 = 0.2808 | 784.2 ± 0.8 | 1.053 ± 0.013
303.15 K, m1 = 0.4406 | 786.3 ± 0.8 | 1.102 ± 0.014
303.15 K, m1 = 0.6113 | 788.6 ± 0.8 | 1.162 ± 0.014
303.15 K, m1 = 0.7834 | 791.1 ± 0.8 | 1.202 ± 0.015
303.15 K, m1 = 0.9637 | 793.8 ± 0.8 | 1.258 ± 0.015
308.15 K, m1 = 0.1293 | 777.9 ± 0.8 | 0.9157 ± 0.012
308.15 K, m1 = 0.2808 | 779.7 ± 0.8 | 0.9505 ± 0.012
308.15 K, m1 = 0.4406 | 781.9 ± 0.8 | 0.9928 ± 0.013
308.15 K, m1 = 0.6113 | 784.7 ± 0.8 | 1.046 ± 0.013
308.15 K, m1 = 0.7834 | 787.3 ± 0.8 | 1.081 ± 0.013
308.15 K, m1 = 0.9637 | 790.1 ± 0.8 | 1.133 ± 0.014
313.15 K, m1 = 0.1293 | 771.6 ± 0.8 | 0.8341 ± 0.011
313.15 K, m1 = 0.2808 | 773.3 ± 0.8 | 0.8606 ± 0.012
313.15 K, m1 = 0.4406 | 775.2 ± 0.8 | 0.8994 ± 0.012
313.15 K, m1 = 0.6113 | 777.2 ± 0.8 | 0.9437 ± 0.012
313.15 K, m1 = 0.7834 | 779.3 ± 0.9 | 0.975 ± 0.013
313.15 K, m1 = 0.9637 | 781.5 ± 0.9 | 1.019 ± 0.013
318.15 K, m1 = 0.1293 | 766.4 ± 0.9 | 0.7569 ± 0.011
318.15 K, m1 = 0.2808 | 767.9 ± 0.9 | 0.7849 ± 0.011
318.15 K, m1 = 0.4406 | 769.6 ± 0.9 | 0.8154 ± 0.011
318.15 K, m1 = 0.6113 | 771.4 ± 0.9 | 0.8571 ± 0.012
318.15 K, m1 = 0.7834 | 773.3 ± 0.9 | 0.8816 ± 0.012
318.15 K, m1 = 0.9637 | 775.3 ± 0.9 | 0.9201 ± 0.012
323.15 K, m1 = 0.1293 | 761.4 ± 0.9 | 0.6866 ± 0.01
323.15 K, m1 = 0.2808 | 762.8 ± 0.9 | 0.7105 ± 0.01
323.15 K, m1 = 0.4406 | 764.3 ± 0.9 | 0.7356 ± 0.011
323.15 K, m1 = 0.6113 | 766 ± 0.9 | 0.7761 ± 0.011
323.15 K, m1 = 0.7834 | 767.8 ± 0.9 | 0.798 ± 0.011
323.15 K, m1 = 0.9637 | 769.7 ± 0.9 | 0.8301 ± 0.011
328.15 K, m1 = 0.1293 | 755.5 ± 1 | 0.6275 ± 0.0097
328.15 K, m1 = 0.2808 | 756.8 ± 1 | 0.6485 ± 0.0099
328.15 K, m1 = 0.4406 | 758.3 ± 1 | 0.6737 ± 0.01
328.15 K, m1 = 0.6113 | 759.9 ± 1 | 0.7013 ± 0.01
328.15 K, m1 = 0.7834 | 761.6 ± 1 | 0.7227 ± 0.01
328.15 K, m1 = 0.9637 | 763.4 ± 1 | 0.7564 ± 0.011

CCO [ethanol]
[2]
Conditions | mass density [kg/m3] | viscosity [mPa·s]
303.15 K | 780.8 ± 0.8 | 0.979 ± 0.013
308.15 K | 776.5 ± 0.8 | 0.8877 ± 0.012
313.15 K | 770.3 ± 0.8 | 0.8086 ± 0.011
318.15 K | 765.2 ± 0.9 | 0.7335 ± 0.011
323.15 K | 760.3 ± 0.9 | 0.6677 ± 0.01
328.15 K | 754.5 ± 1 | 0.6104 ± 0.0096

CCO [ethanol] + NCCCCCCN
[1], m2 = 0
Conditions | mass density [kg/m3] | viscosity [mPa·s]
303.15 K | 780.8 ± 0.8 | 0.979 ± 0.013
308.15 K | 776.5 ± 0.8 | 0.8877 ± 0.012
313.15 K | 770.3 ± 0.8 | 0.8086 ± 0.011
318.15 K | 765.2 ± 0.9 | 0.7335 ± 0.011
323.15 K | 760.3 ± 0.9 | 0.6677 ± 0.01
328.15 K | 754.5 ± 1 | 0.6104 ± 0.0096

CCO [ethanol] + O
[3]
Conditions | mass density, w2 = 0.15 [kg/m3] | mass density, w2 = 0.2 [kg/m3] | mass density, w2 = 0.25 [kg/m3] | viscosity, w2 = 0.15 [mPa·s] | viscosity, w2 = 0.2 [mPa·s] | viscosity, w2 = 0.25 [mPa·s]
303.15 K | 822.7 ± 0.8 | 836 ± 0.9 | 848.8 ± 0.9 | 1.383 ± 0.033 | 1.511 ± 0.036 | 1.611 ± 0.038
308.15 K | 818.4 ± 0.9 | 831.8 ± 0.9 | 843 ± 0.9 | 1.222 ± 0.03 | 1.332 ± 0.032 | 1.402 ± 0.033
313.15 K | 813.1 ± 0.9 | 827.1 ± 0.9 | 838.2 ± 0.9 | 1.085 ± 0.027 | 1.174 ± 0.029 | 1.229 ± 0.03
318.15 K | 807.1 ± 1 | 821 ± 1 | 833.6 ± 1 | 0.9649 ± 0.024 | 1.025 ± 0.025 | 1.085 ± 0.027
323.15 K | 801.4 ± 1 | 814.6 ± 1 | 827.5 ± 1 | 0.8601 ± 0.022 | 0.9113 ± 0.023 | 0.9573 ± 0.024
328.15 K | 796.9 ± 1 | 809.1 ± 1.1 | 822.5 ± 1.1 | 0.7734 ± 0.02 | 0.8123 ± 0.021 | 0.8538 ± 0.022
